The values that follow come from patent publication US20240166627A1, “Terpyridinedione compound or salt thereof, and preparation method and application thereof” (SHENZHEN SALUBRIS PHARMACEUTICALS CO., LTD., priority 2021, published 2024).

Converted amounts (≈) assume the structure as drawn.

In data set [1] the target is p38β (Homo sapiens, UniProt Q15759). The data set can be described thus: p38β kinase screening experiment (ADP-Glo). The class given is biochemical. Conditions: ATP 100 μM in the substrate/ATP mix, 60 min; read-out: IC50 value that the compound inhibits p38β. How it is done: A certain amount of the compound is weighed, prepared into a 10/50 mM mother solution with DMSO, diluted 3 folds with DMSO, and diluted to 10 concentration points as a compound working solution.
Sequence of p38β (Q15759 whole entry): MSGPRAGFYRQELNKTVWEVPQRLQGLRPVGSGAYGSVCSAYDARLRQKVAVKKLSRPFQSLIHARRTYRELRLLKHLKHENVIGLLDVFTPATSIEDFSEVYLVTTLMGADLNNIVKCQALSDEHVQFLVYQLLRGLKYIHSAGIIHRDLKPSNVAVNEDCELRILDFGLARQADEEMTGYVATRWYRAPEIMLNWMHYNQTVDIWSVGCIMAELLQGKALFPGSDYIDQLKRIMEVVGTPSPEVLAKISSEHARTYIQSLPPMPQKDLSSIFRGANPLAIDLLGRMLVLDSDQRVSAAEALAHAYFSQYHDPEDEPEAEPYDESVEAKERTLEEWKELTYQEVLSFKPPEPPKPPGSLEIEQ
50 nL of the diluted compound working solution is transferred to each well of a reaction plate (784075, Greiner) with Echo 655, then 2.5 μL (2 ng/μL) of a p38β kinase solution is added; after 10 minutes at room temperature, 2.5 μL of a mixed solution of a kinase substrate (0.4 mg/mL) and ATP (100 μM) is added, for reaction for 60 min at room temperature; and 4 μL of an ADP Glo reagent is added, for incubation for 40 min at room temperature. 8 μL of a kinase detection reagent is added, for incubation for 40 min at room temperature; and finally a light-emitting signal is read on Envision 2104.
A general note: ADP-Glo turns the ADP formed in a reaction into a luminescent signal.

A short description of data set [2]: Determination of solubility. In kind it is physicochemical. The settings on record: aqueous buffer, thermodynamic from solid, 37° C. 1 h. On the procedure: About 0.5 mg of a to-be-tested sample in a centrifuge tube is weighted, an appropriate amount of DMSO is added to completely dissolve the sample, and then methanol is added to make up to 1 ml.
(If there are more pH values to be investigated, the preparation method may be deduced by analogy).
3. The prepared control solution and test solution are simultaneously put into a 37° C. water bath and heated for 1 h, after 1 h, the solutions are taken out and cooled to room temperature, and then the solutions are filtered with a 0.22 μm filter membrane for sample injection.
4. The concentration of the sample in the test solution is calculated according to C=(A*(ms/vs))/AS, and experiment results are shown in Table 2.
Note: ms, vs and AS are the weight, volume and peak area of the sample in the control solution, respectively.
A is the peak area of the test solution.

Data set [3] can be described thus: Pharmacokinetic experiment in Beagle dogs (IV and PO). The class given is in vivo. Conditions: male, dog, plasma. An excerpt: Polyethylene glycol 400 (batch number: GORKREUT, Saen Chemical Technology (Shanghai) Co., Ltd.); DMSO (batch number: 20200319, GHTECH (Guangdong) Co., Ltd.); and normal saline (batch number: C20052604, Jiangxi Kelun Pharmaceutical Co., Ltd.). An LC-MS instrument (Thermo Fisher Ultimate 3000 UPLC, TSQ QUANTUM ULTRA TSQ Quantum GC).
5 male Beagle dogs with weights being 5 kg to 7 kg, purchased from Beijing Mars Biotechnology Co., Ltd. […]
After the above mixture is given to the dogs through intragastric administration (n=3) or intravenous administration (n=2), about 1 mL of blood is collected from the forelimb or hindlimb vein with a scalp needle, respectively, at 5 min (intravenous administration only), 15 min, 30 min, 1 h, 2 h, 4 h, 6 h, 8 h, 24 h to put into blood collection tubes containing EDTA-K2 anticoagulant; centrifugation is performed for 10 min at 4000 rpm to separate plasma; and then the tubes are stored at −80° C. for testing.
A certain amount of a test sample is accurately weighted and dissolved with DMSO to 2 mg/mL, as a stock solution. The stock solution is diluted to 30000, 10000, 3000, 1000, 300, 100, 50, 30, and 10 ng/mL by using acetonitrile:water (1:1), to obtain standard curve working solutions. 5 μL of the working solution is added to 45 μL of blank canine plasma; and well mixing is performed through vortex, to prepare into standard curve samples equivalent to plasma concentrations of 3000, 1000, 300, 100, 30, 10, 5, 3, and 1 ng/mL. 30 μL of the standard curve sample and the collected plasma sample (plasma collected at 5 min, 15 min, and 30 min of intravenous administration is diluted 5-fold) are added to 150 μL of a propranolol acetonitrile solution (internal standard, 50 ng/mL) to precipitate protein, then 100 μL of water is added to well mix through vortex; centrifugation is performed for 5 min at 4000 rpm; and supernatant is taken for LC-MS analysis. LC-MS detection conditions include the following.
Chromatographic column: Waters ACQUITY™ PREMIER HSS T3, 50*2.1 mm, 1.8 μm.
Mobile phase A: water (0.1% formic acid); mobile phase B: acetonitrile; flow rate: 0.5 mL/min; and gradient elution is shown in Table 3 below.
After LC-MS detection of blood drug concentration, and a non-compartment model of WinNonlin 6.1 software is adopted to calculate pharmacokinetic parameters of beagle dogs after administration.

Data set [4] deals with production of TNFα in U937. The data set can be described thus: Releasing TNFα from U937 induced by LPS. The class given is cell-based. Conditions: Homo sapiens, U-937; PMA-differentiated U937, LPS 100 ng/ml, 4 h; read-out: IC50 value that the compound inhibits the production of TNFα. An excerpt:
Cytokine regulation in human monocytes has shown that the p38 pathway is the key to the biosynthesis of a plurality of pro-inflammatory cytokines including TNFα, IL-1β and IL-6. Therefore, the inhibition of the p38 MAPK pathway is to reduce inflammatory response by reducing the biosynthesis of the pro-inflammatory cytokines. […] This is a reflection of the effect of the compound in the present invention to facilitate reduction of inflammation, which is useful in the treatment of various diseases, including chronic inflammatory diseases, acute inflammatory diseases, or self-inflammatory diseases. The potency and efficacy of the p38 inhibitor in blocking cytokine production are evaluated using a human U937 cell line.
A 1640 medium with an article number being A10491-01, Gibco; penicillin-streptomycin with an article number being 15140-122, Gibco; fetal bovine serum with an article number being 10099-141C, Gibco; PBS with an article number being 10010-031, Gibco; LPS with an article number being L2880, Sigma; PMA with an article number being P1585, Sigma; dimethyl sulfoxide with an article number being D8418-1L, Sigma; and a TNFα kit with an article number being K151QWD-4, MSD.
A 96-well plate with an article number being 3599, Corning; a plate-vibrating device with an article number being QB-9002, QILINBEIER; a centrifuge with an article number being 5810R, Eppendorf; a carbon dioxide incubator with an article number being 371, Thermo; a counter with an article number being C10281, Gibco; a microscope with an article number being CKX41, OLYMPUS; and an MSD plate reader with an article number being 1201 MESO SECTOR 600, MSD.
U937, ATCC with an article number being CRL-1593.2.
About 2 mg of a drug is weighted; a mother solution is prepared to 10 mM (which is calculated by free alkali) by means of DMSO; and the mother solution is diluted 10-fold to 1 mM, and then is successively diluted 4-fold to 250 μM, 62.5 μM, 15.6 μM, 3.9 μM, 0.97 μM, 0.24 μM, and 0.061 μM. The above series of diluted DMSO drugs is diluted 20-fold as working solutions by using media.
At Day 0, 10000/well inoculation is performed, stimulation is performed for 48 h with 20 ng/ml of PMA, and culture is performed at 37° C., 5% CO2. • At Day 2, 1. Supernatant is removed from differentiated U937, cleaning is performed once with PBS, and 96 μl of the 1640 medium is added. • 2. 2 μl of the compound containing (DMSO with a final concentration being 0.1%), and culture is performed for 30 min at 37° C., 5% CO2. • 3. 2 μl of LPS (a final concentration being 100 ng/ml) is added, cells are stimulated, and culture is performed for 4 h at 37° C., 5% CO2. • 4. Centrifugation is performed, supernatant is taken, and content of TNFα in the supernatant is determined through ELISA.
The content of TNFα corresponding to each well is calculated by using a standard curve in the kit.
The compound IC50 is calculated by using a GraphPad nonlinear fitting formula, and for an experimental result, refer to Table 1.

Regarding `Cc1cnc(-c2ccnc(C(C)(C)O)n2)cc1-n1c(C)cc(OCc2ncc(F)cc2F)c(Cl)c1=O` (racemic) [Comparative example 1], the half-maximal inhibitory concentration (IC50) (usually the midpoint of a concentration-inhibition curve) worked out at 5.97 µM in data set [1] and 10.4 nM in data set [4]. For the same compound, the solubility – broadly, the concentration that dissolves in the medium under given conditions – at 1 h in data set [2] (pH = 2.0, PBS buffer) amounted to 56.8 µg/mL (≈ 111 µM); in data set [2] (pH = 7.4, PBS buffer) it was 26.8 µg/mL (≈ 52.1 µM). The results for the AUC(0-t) in data set [3] (IV 1 mg/kg) and in data set [3] (PO 5 mg/kg) were 1530 ng·h/mL and 14400 ng·h/mL, respectively. The results for the Cmax in data set [3] (IV 1 mg/kg) and in data set [3] (PO 5 mg/kg) were 657 ng/mL and 2000 ng/mL, respectively. In data set [3] (IV 1 mg/kg), this compound showed a clearance of 10.7 mL/min/kg. Moreover, in data set [3] (PO 5 mg/kg vs IV 1 mg/kg), the bioavailability was found to be 189%.
